Patent US7074743B1, “Herbicidal composition comprising 4-iodo-2-[3-(4-methoxy-6-methyl-1,3,5-triazin-2-yl)ureidosulfonyl]benzoic esters” (priority 1995, dated 2006)

Key:
Assay type in all cases: in vivo
Viola arvensis = experiment: Herbicidal action on VIOAR, visual scoring vs untreated, post-emergence 2-4 leaf stage; conditions: Table 7
Protocol: (§1) The examples given below were performed in the greenhouse and, in some cases, in field trials.
(§2) The herbicides, or combinations, were applied in cereals after the weeds had emerged naturally using plot sprayers. After application, the results, such as damage to the crop plants and effect on broad-leaved weeds/grass weeds were assessed by means of visual scoring. The herbicidal action was assessed qualitatively and quantitatively by comparing untreated and treated plots on the basis of the effect on plant growth and the development of chloroses and necroses down to the complete destruction of the weeds (0–100%). The application was effected when the crop plants and weeds were in the 2–4 leaf stage. The test was evaluated approximately 4 weeks after application.
(§3) In the greenhouse experiments, the crop plants and broadleaved weeds/grass weeds were grown in No. 13 pots and treated in the 2–4 leaf stage. The pots were subsequently placed in the greenhouse under good growth conditions (temperature, atmospheric humidity, water supply).
(§4) The assessments were carried out similarly to those in the field trials, i.e. visual scoring of the treated plants in comparison with untreated control variants. These assessments were carried out 3 weeks after applying the test preparations and their combinations. The experiments had been set up in two replications.
(§5) To assess the combination effects, the activities of the individual components were added and compared with the activity of the mixtures in equal doses. It was frequently observed that the efficacies of the combinations exceeded the total of the individual activities.
(§6) In cases with less clear effects, the expected value was calculated using Colby's formula and compared with the empirically determined result. The calculated efficacy of a combination which is expected in theory is determined is using S.R. Colby's formula: “Calculation of synergistic and antagonistic responses of herbicide combinations”, Weeds 15 (1967), pages 20 to 22.
(§7) [formula] where • X=% damage caused by herbicide A at a rate of ×kg a.i./ha; • Y=% damage caused by herbicide B at a rate of y kg a.i./ha; • Z=% damage caused by a further herbicide C at a rate of z kg a.i./ha; • E=expected value, i.e. expected damage caused by herbicides A+B (or A+B+C) at x+y (or x+y+z) kg a.i./ha.
(§8) Synergistic effects were assumed to be when the empirical value exceeded the expected value. In the case of combinations with individual components with the same active substances, comparisons via the total formula were also possible.

Triticum aestivum = experiment: Damage to crop plant TRZAW, visual scoring vs untreated
Protocol: as §1, §2, §3, §4

Ambrosia elatior = experiment: Herbicidal action on AMBEL, visual scoring vs untreated, post-emergence 2-4 leaf stage; conditions: Table 12; 2.5 g of ai/ha
Protocol: as §1, §2
(§9) In the greenhouse experiments, the crop plants and broadleaved weeds/grass weeds were grown in No. 13 pots and treated in the 2–4 leaf stage. […]
(§10) In cases with less clear effects, the expected value was calculated using Colby's formula and compared with the empirically determined result. The calculated efficacy of a combination which is expected in theory is determined is using S.R. Colby's formula: “Calculation of synergistic and antagonistic responses of herbicide combinations”, Weeds 15 (1967), pages 20 to 22. […]

Fallopia convolvulus = experiment: Herbicidal action on FALCO, visual scoring vs untreated, post-emergence 2-4 leaf stage
Protocol: as §1, §2, §3, §4, §5, §6, §7, §8

Centaurea cyanus = experiment: Herbicidal action on CENCY, visual scoring vs untreated, post-emergence 2-4 leaf stage
Protocol: as §1, §2, §3, §4, §5, §6, §7, §8

Abuthilon theophrastis = experiment: Herbicidal action on ABUTHE, visual scoring vs untreated, post-emergence 2-4 leaf stage; conditions: Table 12; 2.5 g of ai/ha
Protocol: as §1, §2, §9, §10

Mercurialis annua = experiment: Herbicidal action on MERAN, visual scoring vs untreated, post-emergence 2-4 leaf stage; conditions: Table 11
Protocol: as §1, §2, §3, §4, §5, §6, §7, §8

Gallium aparine = experiment: Herbicidal action on GALAP, visual scoring vs untreated, post-emergence 2-4 leaf stage
Protocol: as §1, §2, §3, §4, §5, §6, §7, §8

Secale cereale = experiment: Damage to crop plant SECCW, visual scoring vs untreated
Protocol: as §1, §2, §3, §4

Echinochloa crus galli = experiment: Herbicidal action on ECHCR, visual scoring vs untreated, post-emergence 2-4 leaf stage
Protocol: as §1, §2, §3, §4, §5, §6, §7, §8

Zea mays = experiment: Damage to crop plant ZEAMA, visual scoring vs untreated
Protocol: as §1, §2, §3, §4

Avena fatua = experiment: Herbicidal action on AVEFA, visual scoring vs untreated, post-emergence 2-4 leaf stage; conditions: Table 11
Protocol: as §1, §2, §3, §4, §5, §6, §7, §8

## COC(=O)c1ccc(I)cc1S(=O)(=O)NC(=O)Nc1nc(C)nc(OC)n1.[Na] [A), sodium salt of methyl 4-iodo-2-[3-(4-methoxy-6-methyl-1,3,5-triazin-2-yl)ureidosulfonyl]benzoate]
Viola arvensis; 2.5 g of a.i./ha
  VIOAR % control: 58%
Viola arvensis; 5 g of a.i./ha
  VIOAR % control: 75%
Viola arvensis; 10 g of a.i./ha
  VIOAR % control: 95%
Viola arvensis; 20 g of a.i./ha
  VIOAR % control: 98%
Triticum aestivum; Table 1, 3 g of a.i./ha
  TRZAW % damage: 0%
Triticum aestivum; Table 1, 5 g of a.i./ha
  TRZAW % damage: 0%
Triticum aestivum; Table 1, 10 g of a.i./ha
  TRZAW % damage: 0%
Triticum aestivum; Table 1, 20 g of a.i./ha
  TRZAW % damage: 0%
Triticum aestivum; Table 2, 3 g of a.i./ha
  TRZAW % damage: 0%
Triticum aestivum; Table 2, 5 g of a.i./ha
  TRZAW % damage: 0%
Triticum aestivum; Table 2, 10 g of a.i./ha
  TRZAW % damage: 0%
Triticum aestivum; Table 2, 20 g of a.i./ha
  TRZAW % damage: 0%
Triticum aestivum; Table 3, 3 g of a.i./ha
  TRZAW % damage: 0%
Triticum aestivum; Table 3, 5 g of a.i./ha
  TRZAW % damage: 0%
Triticum aestivum; Table 3, 10 g of a.i./ha
  TRZAW % damage: 0%
Triticum aestivum; Table 3, 20 g of a.i./ha
  TRZAW % damage: 0%
Triticum aestivum; Table 5, 2.5 g of a.i./ha
  TRZAW % damage: 0%
Triticum aestivum; Table 5, 5 g of a.i./ha
  TRZAW % damage: 0%
Triticum aestivum; Table 5, 10 g of a.i./ha
  TRZAW % damage: 0%
Triticum aestivum; Table 5, 20 g of a.i./ha
  TRZAW % damage: 10%
Triticum aestivum; Table 5, 40 g of a.i./ha
  TRZAW % damage: 15%
Triticum aestivum; Table 5, 80 g of a.i./ha
  TRZAW % damage: 18%
Triticum aestivum; Table 5, 160 g of a.i./ha
  TRZAW % damage: 28%
Triticum aestivum; Table 7, 2.5 g of a.i./ha
  TRZAW % damage: 0%
Triticum aestivum; Table 7, 5 g of a.i./ha
  TRZAW % damage: 0%
Triticum aestivum; Table 7, 10 g of a.i./ha
  TRZAW % damage: 2%
Triticum aestivum; Table 7, 20 g of a.i./ha
  TRZAW % damage: 10%
Triticum aestivum; Table 9, 2.5 g of a.i./ha
  TRZAW % damage: 0%
Triticum aestivum; Table 9, 5 g of a.i./ha
  TRZAW % damage: 0%
Triticum aestivum; Table 9, 10 g of a.i./ha
  TRZAW % damage: 2%
Triticum aestivum; Table 9, 20 g of a.i./ha
  TRZAW % damage: 10%
Triticum aestivum; Table 9, 40 g of a.i./ha
  TRZAW % damage: 15%
Ambrosia elatior
  AMBEL % control: 88%
Fallopia convolvulus; Table 5, 2.5 g of a.i./ha
  FALCO % control: 73%
Fallopia convolvulus; Table 5, 5 g of a.i./ha
  FALCO % control: 85%
Fallopia convolvulus; Table 5, 10 g of a.i./ha
  FALCO % control: 88%
Fallopia convolvulus; Table 5, 20 g of a.i./ha
  FALCO % control: 97%
Fallopia convolvulus; Table 5, 40 g of a.i./ha
  FALCO % control: 98%
Fallopia convolvulus; Table 5, 80 g of a.i./ha
  FALCO % control: 99%
Fallopia convolvulus; Table 5, 160 g of a.i./ha
  FALCO % control: 99%
Fallopia convolvulus; Table 9, 2.5 g of a.i./ha
  FALCO % control: 73%
Fallopia convolvulus; Table 9, 5 g of a.i./ha
  FALCO % control: 85%
Fallopia convolvulus; Table 9, 10 g of a.i./ha
  FALCO % control: 88%
Fallopia convolvulus; Table 9, 20 g of a.i./ha
  FALCO % control: 97%
Fallopia convolvulus; Table 9, 40 g of a.i./ha
  FALCO % control: 98%
Centaurea cyanus; Table 6, 5 g of a.i./ha
  CENCY % control: 0%
Centaurea cyanus; Table 6, 10 g of a.i./ha
  CENCY % control: 30%
Centaurea cyanus; Table 6, 15 g of a.i./ha
  CENCY % control: 60%
Centaurea cyanus; Table 9, 2.5 g of a.i./ha
  CENCY % control: 30%
Centaurea cyanus; Table 9, 5 g of a.i./ha
  CENCY % control: 43%
Centaurea cyanus; Table 9, 10 g of a.i./ha
  CENCY % control: 58%
Centaurea cyanus; Table 9, 20 g of a.i./ha
  CENCY % control: 78%
Centaurea cyanus; Table 10, 5 g of a.i./ha
  CENCY % control: 0%
Centaurea cyanus; Table 10, 10 g of a.i./ha
  CENCY % control: 30%
Centaurea cyanus; Table 10, 15 g of a.i./ha
  CENCY % control: 60%
Abuthilon theophrastis
  ABUTHE % control: 10%
Mercurialis annua; 5 g of a.i./ha
  MERAN % control: 70%
Mercurialis annua; 10 g of a.i./ha
  MERAN % control: 94%
Gallium aparine; Table 7, 2.5 g of a.i./ha
  GALAP % control: 35%
Gallium aparine; Table 7, 5 g of a.i./ha
  GALAP % control: 58%
Gallium aparine; Table 7, 10 g of a.i./ha
  GALAP % control: 60%
Gallium aparine; Table 7, 20 g of a.i./ha
  GALAP % control: 99%
Gallium aparine; Table 11, 5 g of a.i./ha
  GALAP % control: 75%
Gallium aparine; Table 11, 10 g of a.i./ha
  GALAP % control: 98%
Secale cereale; Table 6, 5 g of a.i./ha
  SECCW % damage: 0%
Secale cereale; Table 6, 10 g of a.i./ha
  SECCW % damage: 0%
Secale cereale; Table 6, 15 g of a.i./ha
  SECCW % damage: 5%
Secale cereale; Table 10, 5 g of a.i./ha
  SECCW % damage: 0%
Secale cereale; Table 10, 10 g of a.i./ha
  SECCW % damage: 0%
Secale cereale; Table 10, 15 g of a.i./ha
  SECCW % damage: 5%
Echinochloa crus galli; Table 4, 10 g of a.i./ha
  ECHCR % control: 65%
Echinochloa crus galli; Table 4, 20 g of a.i./ha
  ECHCR % control: 75%
Echinochloa crus galli; Table 4, 40 g of a.i./ha
  ECHCR % control: 80%
Echinochloa crus galli; Table 4, 80 g of a.i./ha
  ECHCR % control: 88%
Echinochloa crus galli; Table 8, 10 g of a.i./ha
  ECHCR % control: 65%
Echinochloa crus galli; Table 8, 20 g of a.i./ha
  ECHCR % control: 73%
Echinochloa crus galli; Table 8, 40 g of a.i./ha
  ECHCR % control: 80%
Echinochloa crus galli; Table 8, 80 g of a.i./ha
  ECHCR % control: 88%
Zea mays; Table 4, 10 g of a.i./ha
  ZEAMA % damage: 0%
Zea mays; Table 4, 20 g of a.i./ha
  ZEAMA % damage: 0%
Zea mays; Table 4, 40 g of a.i./ha
  ZEAMA % damage: 0%
Zea mays; Table 4, 80 g of a.i./ha
  ZEAMA % damage: 0%
Zea mays; Table 8, 10 g of a.i./ha
  ZEAMA % damage: 0%
Zea mays; Table 8, 20 g of a.i./ha
  ZEAMA % damage: 0%
Zea mays; Table 8, 40 g of a.i./ha
  ZEAMA % damage: 0%
Zea mays; Table 8, 80 g of a.i./ha
  ZEAMA % damage: 0%
Zea mays; Table 12, 2.5 g of ai/ha
  ZEAMA % damage: 3%
Avena fatua; 5 g of a.i./ha
  AVEFA % control: 60%
Avena fatua; 10 g of a.i./ha
  AVEFA % control: 80%
